What all share (format): cell-based
One test concerns the target WT HER2 (Homo sapiens (Human), UniProt P04626). As to the kind of experiment: HER2 (Y1248) phosphorylation in BT474 cells (MSD). The note with it: p-HER2 (Y1248)/total HER2, 4 h, read-out: HER2 WT Amplification BT474 IC50. The procedure:
The plates were incubated for 4 h at 37° C. with 5% CO2 and then the HER2 (Y1248) phosphorylation level of cells in each well were measured with MSD Kit (Phospho-ErbB2 ([…]) Assay Whole Cell Lysate Kit: Cat # […]-3). The assay is a electrochemiluminescent method (MESO SCALE DISCOVERY) for determining both phosphorylated and total HER2 of cells with an MSD SECTOR® Imager and then the ratio of p-HER2/total HER2 can be generated by the machine.

Another test concerns the target WT EGFR (Homo sapiens (Human), UniProt P00533). The experiment in a line: EGFR (Y1068) phosphorylation in NCI-H838 cells (MSD). To be noted: p-EGFR (Y1068)/total EGFR, 4 h, hEGF stimulation.
Another test relates to BT474 cells. The experiment in a line: BT474 anti-proliferation assay (MTS). The note with it: Homo sapiens, BT-474; BT474 cells, 72 h, MTS; read-out: HER2 WT Amplification BT474 GI50. The procedure: A compound's activity of selective inhibition for HER2 wild type amplification can be evaluated with BT474 cell line (ATCC® HTB-20™). The cell line expressed phosphorylated HER2 protein and its proliferation depended on the amplified gene, which could be used for in vitro PD and anti-proliferation assays.
The anti-proliferation activity of compounds were determined as following procedure: The BT474 cells were sorted in 384 well plates with the DMEM medium containing 10% FBS and […] overnight and then dosed with tested compounds at a series of concentrations (30 μM, 10 μM, 3 μM, 0.3 μM, 0.1 μM, 0.03 μM, 0.01 μM, 0.001 μM) on next day. Meanwhile, another cells plate was prepared for measuring GO value on next day. The dosed plates were incubate for 72h at 37° C. with 5% CO2 and the number of viable cells in each well of GO or dosed plates were measured by MTS (CellTiter 96® AQueous One Solution Cell Proliferation Assay, Promega) endpoint. This assay is a colorimetric method for determining the number viable cells in the proliferation assay. Detection reagents (5 μl) was dispensed into per well, and the plates were incubated for 2 hrs at room temperature. Then, absorbance at 490 nm and 650 nm (reference wavelength) in each well was measured using the safile II. (Tecan). The percentage of proliferation was got from the formula: % Proliferation=100×(G3 value of sample well-Go value)/(G3 value of DMSO control-Go value). The GI50 values were further calculated as the compounds concentration required for 50% Proliferation in best-fit curves using Genedata Screener® software.

The source of these data is patent publication US10822334B2, “ErbB receptor inhibitors” (Dizal (Jiangsu) Pharmaceutical Co., Ltd., priority 2018, dated 2020).

In general, IC50 refers to the midpoint of a concentration-inhibition curve. Usually GI50 stands for the concentration giving 50% growth inhibition.

Chain of WT EGFR (P00533 25-1210): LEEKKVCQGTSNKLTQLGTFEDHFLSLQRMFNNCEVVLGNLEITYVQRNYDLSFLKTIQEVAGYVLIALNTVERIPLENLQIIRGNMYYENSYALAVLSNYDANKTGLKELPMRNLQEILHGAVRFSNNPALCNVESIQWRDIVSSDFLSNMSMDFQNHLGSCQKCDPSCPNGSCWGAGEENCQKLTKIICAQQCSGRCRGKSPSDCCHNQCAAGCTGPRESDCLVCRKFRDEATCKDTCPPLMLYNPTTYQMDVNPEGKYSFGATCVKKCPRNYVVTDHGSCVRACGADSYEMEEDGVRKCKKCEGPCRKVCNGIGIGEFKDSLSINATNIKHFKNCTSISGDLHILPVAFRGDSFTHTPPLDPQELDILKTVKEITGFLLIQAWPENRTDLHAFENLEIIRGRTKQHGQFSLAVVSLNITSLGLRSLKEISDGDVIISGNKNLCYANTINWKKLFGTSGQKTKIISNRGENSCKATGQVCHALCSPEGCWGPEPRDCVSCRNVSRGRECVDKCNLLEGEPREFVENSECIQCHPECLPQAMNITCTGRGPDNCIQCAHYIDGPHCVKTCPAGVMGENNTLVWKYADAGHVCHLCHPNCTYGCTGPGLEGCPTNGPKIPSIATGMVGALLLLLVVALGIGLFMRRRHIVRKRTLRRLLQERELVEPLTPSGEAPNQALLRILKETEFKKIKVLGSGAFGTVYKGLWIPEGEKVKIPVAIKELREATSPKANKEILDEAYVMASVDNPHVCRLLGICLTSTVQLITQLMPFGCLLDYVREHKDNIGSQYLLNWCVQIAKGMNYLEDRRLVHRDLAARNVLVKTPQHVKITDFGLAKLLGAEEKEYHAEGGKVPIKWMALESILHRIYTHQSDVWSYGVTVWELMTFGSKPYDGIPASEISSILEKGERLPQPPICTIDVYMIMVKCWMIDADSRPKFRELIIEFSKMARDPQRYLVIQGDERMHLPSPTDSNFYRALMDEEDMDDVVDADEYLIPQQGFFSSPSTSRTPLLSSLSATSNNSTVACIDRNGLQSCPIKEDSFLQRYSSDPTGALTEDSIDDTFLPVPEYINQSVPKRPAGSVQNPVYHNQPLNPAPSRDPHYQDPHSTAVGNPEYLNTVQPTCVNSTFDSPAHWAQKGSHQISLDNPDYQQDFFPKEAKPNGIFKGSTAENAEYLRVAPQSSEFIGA
Chain of WT HER2 (P04626 23-1255): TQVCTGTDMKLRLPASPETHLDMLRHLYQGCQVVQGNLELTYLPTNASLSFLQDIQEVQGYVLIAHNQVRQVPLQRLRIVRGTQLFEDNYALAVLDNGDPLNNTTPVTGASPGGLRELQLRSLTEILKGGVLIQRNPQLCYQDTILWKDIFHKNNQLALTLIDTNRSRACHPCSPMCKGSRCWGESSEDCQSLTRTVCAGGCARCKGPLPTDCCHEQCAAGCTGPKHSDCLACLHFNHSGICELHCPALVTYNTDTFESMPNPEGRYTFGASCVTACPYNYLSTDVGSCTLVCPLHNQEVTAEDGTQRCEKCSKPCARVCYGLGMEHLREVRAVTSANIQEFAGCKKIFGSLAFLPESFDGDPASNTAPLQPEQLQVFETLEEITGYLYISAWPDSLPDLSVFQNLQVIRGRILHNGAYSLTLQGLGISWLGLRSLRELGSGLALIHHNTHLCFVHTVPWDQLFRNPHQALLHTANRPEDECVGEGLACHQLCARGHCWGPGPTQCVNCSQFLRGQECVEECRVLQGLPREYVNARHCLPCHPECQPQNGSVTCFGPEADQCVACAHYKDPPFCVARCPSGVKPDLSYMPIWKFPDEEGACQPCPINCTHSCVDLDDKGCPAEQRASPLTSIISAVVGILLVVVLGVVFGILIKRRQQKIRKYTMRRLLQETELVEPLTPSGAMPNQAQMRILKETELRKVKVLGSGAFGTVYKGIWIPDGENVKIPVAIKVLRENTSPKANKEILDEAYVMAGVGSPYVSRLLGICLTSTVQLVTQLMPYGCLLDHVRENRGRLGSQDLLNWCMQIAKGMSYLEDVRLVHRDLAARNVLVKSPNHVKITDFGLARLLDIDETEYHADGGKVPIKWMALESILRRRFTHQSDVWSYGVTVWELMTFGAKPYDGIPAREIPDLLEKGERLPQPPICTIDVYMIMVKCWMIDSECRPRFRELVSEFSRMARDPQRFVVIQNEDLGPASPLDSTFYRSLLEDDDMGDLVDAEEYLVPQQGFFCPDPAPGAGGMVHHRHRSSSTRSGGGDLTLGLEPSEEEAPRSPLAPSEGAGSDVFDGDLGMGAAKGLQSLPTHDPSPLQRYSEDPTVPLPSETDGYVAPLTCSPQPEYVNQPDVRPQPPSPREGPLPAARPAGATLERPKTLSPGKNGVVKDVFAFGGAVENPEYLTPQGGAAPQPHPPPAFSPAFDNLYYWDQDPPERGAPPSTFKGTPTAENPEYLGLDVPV

On to `Cc1cc(Nc2ncnc3cccc(OC4CCNC(C(F)F)C4)c23)ccc1Oc1ccn2ccnc2c1` (racemic) [Compound 15, (±)-(5-(((2S,4S)-2-(difluoromethyl)piperidin-4-yl)oxy)-N-(4-(imidazo[1,2-a]pyridin-7-yloxy)-3-methylphenyl)quinazolin-4-amine], for which the IC50 is 2.55 nM on WT HER2 and above 10000 nM against WT EGFR.

On to `[2H]C([2H])([2H])Oc1ccc2ncnc(Nc3ccc(Oc4ccn5ncnc5c4)c(C)c3)c2c1OC1CCN(C([2H])([2H])[2H])CC1(F)F` (racemic) [Compound 26, (±)-N-(4-([1,2,4]triazolo[1,5-a]pyridin-7-yloxy)-3-methylphenyl)-5-((3,3-difluoro-1-(methyl-d3)piperidin-4-yl)oxy)-6-(methoxy-d3)quinazolin-4-amine], for which the IC50 at WT HER2 is 5.84 nM; against WT EGFR, above 10000 nM. Besides, the GI50 with BT474 cells turned out to be 14.1 nM.

Consider `COc1ccc2ncnc(Nc3ccc(Oc4ccn5ncnc5c4)c(C)c3)c2c1OC1CCN(C)CC1F` (single isomer, unassigned) [Compound 3, N-(4-([1,2,4]triazolo[1,5-a]pyridin-7-yloxy)-3-methylphenyl)-5-((3-fluoro-1-methylpiperidin-4-yl)oxy)-6-methoxyquinazolin-4-amine], for which the IC50 at WT HER2 is 26 nM; on WT EGFR, above 3000 nM. For the same molecule, in the test with BT474 cells, the GI50 was 44.7 ± 4.2 nM.

In the case of `COc1ccc2ncnc(Nc3ccc(Oc4ccn5ncnc5c4)c(C)c3)c2c1OC1CN(C)CCC1(F)F` (single isomer, unassigned) [Compound 5, N-(4-([1,2,4]triazolo[1,5-a]pyridin-7-yloxy)-3-methylphenyl)-5-((4,4-difluoro-1-methylpiperidin-3-yl)oxy)-6-methoxyquinazolin-4-amine], the IC50 at WT HER2 was 6.83 nM; against WT EGFR, above 3000 nM. Also, the GI50 in the test with BT474 cells was 15.1 ± 8.19 nM.

`Cc1cc(Nc2ncnc3cccc(OC4CCN(C)CC4(F)F)c23)ccc1Oc1ccc2c(c1)ncn2C` (single isomer, unassigned) [Compound 7, 5-((3,3-difluoro-1-methylpiperidin-4-yl)oxy)-N-(3-methyl-4-((1-methyl-1H-benzo[d]imidazol-5-yl)oxy)phenyl)quinazolin-4-amine]: the IC50 on WT HER2 was 5.57 nM; against WT EGFR, above 3000 nM. For the same molecule, the GI50 in the test on BT474 cells came to 8.36 ± 0.15 nM.

As for `COc1cc(OC2CCN(C)CC2(F)F)c2c(Nc3ccc(Oc4ccn5ccnc5c4)c(C)c3)ncnc2c1` (single isomer, unassigned) [Compound 8, 5-((3,3-difluoro-1-methylpiperidin-4-yl)oxy)-N-(4-(imidazo[1,2-a]pyridin-7-yloxy)-3-methylphenyl)-7-methoxyquinazolin-4-amine], the IC50 came to 6.92 nM at WT HER2 and 1800 nM at WT EGFR. In addition, the GI50 with BT474 cells turned out to be 7.47 ± 2.99 nM.

In the case of `Cc1cc(Nc2ncnc3cccc(OC4CCN(C)CC4(F)F)c23)ccc1Oc1ccc2ccnn2c1` (single isomer, unassigned) [Compound 9, 5-((3,3-difluoro-1-methylpiperidin-4-yl)oxy)-N-(3-methyl-4-(pyrazolo[1,5-a]pyridin-6-yloxy)phenyl)quinazolin-4-amine], the IC50 worked out at 16.2 nM on WT HER2 and 1030 nM against WT EGFR. Besides, the GI50 in the test on BT474 cells turned out to be 27.3 ± 14.5 nM.

Turning to `Cc1cc(Nc2ncnc3cc(N)cc(OC4CCN(C)CC4(F)F)c23)ccc1Oc1ccn2ncnc2c1` (single isomer, unassigned) [Compound 10, N^4-(4-([1,2,4]triazolo[1,5-a]pyridin-7-yloxy)-3-methylphenyl)-5-((3,3-difluoro-1-methylpiperidin-4-yl)oxy)quinazoline-4,7-diamine], the half-inhibitory concentration (IC50) was 7.86 nM at WT HER2 and above 3000 nM against WT EGFR. Besides, in the test with BT474 cells, the GI50 was 19 ± 2.46 nM.

Turning to `Cc1cc(Nc2ncnc3cccc(OC4CCN(C)CC4F)c23)ccc1Oc1ccn2ccnc2c1` (single isomer, unassigned) [Compound 11], the GI50 with BT474 cells was 24.6 ± 4.85 nM.

Consider `CCN1CCC(Oc2cccc3ncnc(Nc4ccc(Oc5ccn6ncnc6c5)c(C)c4)c23)C(F)(F)C1` (single isomer, unassigned) [Compound 12], for which the IC50 was 7.56 nM at WT HER2 and above 3000 nM at WT EGFR. In addition, in the test on BT474 cells, the GI50 amounted to 9.02 nM.

`Cc1cc(Nc2ncnc3cc(OC4CCOC4)cc(OC4CCN(C)CC4(F)F)c23)ccc1Oc1ccn2ncnc2c1` (single isomer, unassigned) [Compound 18, N-(4-([1,2,4]triazolo[1,5-a]pyridin-7-yloxy)-3-methylphenyl)-5-((3,3-difluoro-1-methylpiperidin-4-yl)oxy)-7-((tetrahydrofuran-3-yl)oxy)quinazolin-4-amine]: the IC50 was 12.6 nM on WT HER2 and 515 nM on WT EGFR. Besides, the GI50 with BT474 cells is 8.58 ± 3.55 nM.

On to `Cc1cc(Nc2ncnc3cccc(OC4CCN(C)CCC4(F)F)c23)ccc1Oc1ccn2ccnc2c1` (single isomer, unassigned) [Compound 21, 5-((5,5-difluoro-1-methylazepan-4-yl)oxy)-N-(4-(imidazo[1,2-a]pyridin-7-yloxy)-3-methylphenyl)quinazolin-4-amine], for which the IC50 on WT HER2 amounted to 61.3 ± 11.2 nM. The GI50 in the test on BT474 cells came out at 15.9 ± 6.57 nM.

For `COc1cc(OC2CCN(C)CC2(F)F)c2c(Nc3ccc(Oc4cc5ncnn5cc4F)c(C)c3)ncnc2c1` (single isomer, unassigned) [Compound 22, 5-((3,3-difluoro-1-methylpiperidin-4-yl)oxy)-N-(4-((6-fluoro-[1,2,4]triazolo[1,5-a]pyridin-7-yl)oxy)-3-methylphenyl)-7-methoxyquinazolin-4-amine], the IC50 on WT HER2 amounted to 11.6 ± 10.4 nM; against WT EGFR it was 2920 ± 2320 nM. Besides, in the test with BT474 cells, the GI50 worked out at 18.6 ± 6.51 nM.

In the case of `COc1ccc2ncnc(Nc3ccc(Oc4cc5ncnn5cc4F)c(C)c3)c2c1OC1CCN(C)CC1(F)F` (single isomer, unassigned) [Compound 23, 5-((3,3-difluoro-1-methylpiperidin-4-yl)oxy)-N-(4-((6-fluoro-[1,2,4]triazolo[1,5-a]pyridin-7-yl)oxy)-3-methylphenyl)-6-methoxyquinazolin-4-amine], the IC50 at WT HER2 is 6.17 nM; against WT EGFR, above 10000 nM. In addition, the GI50 in the test on BT474 cells stood at 11.7 nM.

For the molecule `Cc1cc(Nc2ncnc3cccc(O[C@H]4C[C@H]5CC[C@@H](C4)N5CC(F)F)c23)ccc1Oc1ccn2ncnc2c1` [Compound 2, N-(4-([1,2,4]triazolo[1,5-a]pyridin-7-yloxy)-3-methylphenyl)-5-(((1R,3r,5S)-8-(2,2-difluoroethyl)-8-azabicyclo[3.2.1]octan-3-yl)oxy)quinazolin-4-amine], the IC50 at WT HER2 came to 6.17 nM. Also, in the test with BT474 cells, the GI50 came to 19 ± 1.4 nM.

Take `COc1ccc2ncnc(Nc3ccc(Oc4ccn5ncnc5c4)c(C)c3)c2c1OC[C@H]1CC(F)(F)CCN1C` [Compound 4, (R)-N-(4-([1,2,4]triazolo[1,5-a]pyridin-7-yloxy)-3-methylphenyl)-5-((4,4-difluoro-1-methylpiperidin-2-yl)methoxy)-6-methoxyquinazolin-4-amine]: the IC50 was 7.96 nM on WT HER2 and above 3000 nM against WT EGFR. In the test on BT474 cells, the GI50 was found to be 4.33 ± 0.63 nM.

In the case of `Cc1cc(Nc2ncnc3cccc(OC45CCN(CC4)CC5)c23)ccc1Oc1ccn2ccnc2c1` [Compound 13, N-(4-(imidazo[1,2-a]pyridin-7-yloxy)-3-methylphenyl)-5-(quinuclidin-4-yloxy)quinazolin-4-amine], the IC50 on WT HER2 is 21.8 nM; at WT EGFR, above 3000 nM. In addition, the GI50 in the test with BT474 cells worked out at 49.8 ± 6.87 nM.

Take `CS(=O)(=O)CCNCc1ccc(-c2ccc3ncnc(Nc4ccc(OCc5cccc(F)c5)c(Cl)c4)c3c2)o1` [Lapatinib, reference compound]: in the test on BT474 cells, the GI50 worked out at 12.1 ± 2.78 nM.

In the case of `Cc1cc(Nc2ncnc3ccc(NC4=NC(C)(C)CO4)cc23)ccc1Oc1ccn2ncnc2c1` [ONT380, reference compound], the values for the IC50 on WT HER2 and against WT EGFR were 2 nM and above 3000 nM, respectively. Besides, the GI50 with BT474 cells was 10.8 ± 4.13 nM.
